Test results published in patent publication US20040265880A1, “Genomic and proteomic approaches for the development of cell culture medium” (Sigma-Aldrich Co., priority 2003, published 2004).
“Also recorded” adds a separate entry of the source.

How the values were obtained:
HEK-293 cells = assay: Resazurin high throughput proliferation assay, HEK-293; assay type: cell-based, human; settings: for effect on HEK-293 proliferation (RFU, resazurin): versus base medium with 1% FBS, each ligand at three concentrations
Experimental: Resazurin is a metabolic dye which is converted to a fluorescent product. The greater the amount of the fluorescent product that is generated, the more metabolism, which directly correlates with cell number.
In this assay, resazurin was added to HEK-293 cells plated in each well of a 24-well assay plate containing a test medium containing one of the 16 ligands corresponding to the positive growth factors/cytokines and incubated at 37° C. After a 30 minute incubation, the plate was analyzed on a standard fluorescence plate reader. A higher RFU value from the plate reader translates to a higher cell density in the wells.
Briefly, the 16 ligands corresponding to positive growth factor/cytokine receptors were tested in the resazurin assay, each ligand at three different concentrations. The graphical representations of the RFU values observed for each factor, shown in FIGS. 3 and 4, include the base medium (with 1% FBS) shown as the pink line. The other 3 lines on each graph represent the three (3) concentrations of growth factor tested in the assay. […] Finally, some factors had no effect on the proliferation of the HEK-293 culture (FIG. 3A-3D).
(§1) Cells were plated in each well of a 24-well tissue culture treated plate containing 1 ml of a base medium. The base medium contained the lowest amount of FBS required to maintain approximately half-maximal growth of the given cell type. Test conditions were performed in triplicate, with each test compound added to the base medium at three different concentrations. The cells were allowed to grow until they reached approximately 33% confluent. At this point, 100 μl of the resazurin solution from a resazurin based in vitro toxicology kit (Sigma-Aldrich Co., Product No. TOX-8) was added to each well. After sufficient incubation time to convert some of the resazurin, the fluorescence was measured on a HTS 7000 Plus BioAssay Reader (Perkin-Elmer, Boston, Mass.). Readings were taken once a day until the culture was confluent (typically about 4 days). A plate with base medium only (no cells) was used as a blank and subtracted from the RFU reading to establish the final RFU values.

WI-38 cells = assay: Proliferation assay (resazurin), WI-38; assay type: cell-based, human; settings: single factor added to base medium
Description: In order to test the possibility of using the method as applied to HEK-293 cells to identify pathways in other cell lines, the normal human fibroblast, WI-38 was chosen. These cells are typically grown in a base medium containing anywhere from 3-10% FBS.
Of the initial 17 receptors gleaned from the microarray, 12 ligands were chosen for testing. These ligands were chosen in the same way as the ligands for the HEK-293 cells, based on signal versus controls as well as based on knowledge of the various factors.
Signaling within a cell for increased growth can be stimulated in a variety of different ways. Combinations of the 4 chosen factors as listed above we added to cell culture medium to determine if the addition of more than 1 of the positive ligands would produce an increased amount of proliferation, or if the ligands would all stimulate the same downstream pathways, leading to no added benefit. This method allowed for the formulation of cell culture medium that it had not been possible to formulate prior to these assays.
as §1

CHO-AP cells [1] = assay: Alkaline phosphatase production assay, CHO-AP; assay type: cell-based, Chinese hamster; settings: suspension culture in serum-free CHO medium
Experimental: (§2) In order to further test the possibility of using the method as applied to HEK-293 cells to identify pathways in other cell lines, Chinese hamster ovary (CHO) cells were run on a microarray. Cells from the CHO-AP line produce alkaline phosphatase (AP). These cells are grown in a suspension culture in a serum-free CHO medium (Sigma-Aldrich Co., Product No. C5467).
On day 7 of the assay, the contents of each well were collected into 1.5 ml microfuge tubes. The cell suspensions were centrifuged at 16,000 rpm for five minutes. The supernatants were collected in 2 ml cryovials and the cell pellets were discarded. Each supernatant was diluted 1:10 and then assayed for the presence of Alkaline Phosphatase using the Alkaline Phosphatase Reporter Gene Assay Kit, Fluorescence (Product AP-F).

CHO-AP cells [2] = assay: Proliferation assay, CHO-AP; assay type: cell-based, Chinese hamster; settings: suspension culture in serum-free CHO medium
Experimental: as §2
Although the cDNA array from Takara is designed with human sequences, the array was probed using cDNA made from mRNA from the CHO cells. This attempt generated 22 positive receptors, of which 16 were tested (Table 6).
as §1, with “The cells were allowed to grow until they reached approximately 33% confluent. At this point, 100 μl of the resazurin solution from a resazurin based in vitro toxicology kit (Sigma-Aldrich Co., Product No. TOX-8) was added to each well.” left out

| Compound | effect on proliferation of WI-38 cells (RFU) (WI-38 cells) | effect on HEK-293 proliferation (RFU, resazurin) (HEK-293 cells) | also measured |
| --- | --- | --- | --- |
| CCCCC/C=C\C/C=C\C/C=C\C/C=C\CCCC(=O)O [arachidonic acid, reference compound] | – | – | effect on proliferation of HEK-293 cells (PKC pathway stimulation, Example 4) (HEK-293 cells; FIG. 10): positive effect |
| basic fibroblast growth factor [bFGF] | significant increased proliferation | significant effect | effect on proliferation of WI-38 cells (RFU) (WI-38 cells; listed as basic fibroblast growth factor): positive effects |
| epidermal growth factor [EGF, growth factor, ligand of EGF receptor] | – | significant effect | – |
| interleukin-1 [IL-1] | significant increased proliferation | – | effect on proliferation of WI-38 cells (RFU) (WI-38 cells; listed as interleukin-1): positive effects; productivity of alkaline phosphatase by CHO-AP cells (CHO-AP cells [1]): increased the productivity; also recorded: positive effects; effect on proliferation of CHO-AP cells (CHO-AP cells [2]): positive effects |
| platelet-derived growth factor [PDGF] | significant increased proliferation | – | effect on proliferation of WI-38 cells (RFU) (WI-38 cells; listed as platelet-derived growth factor AB): positive effects |
| stromal cell-derived factor 1a [SDF1α] | significant increased proliferation | significant effect | effect on proliferation of WI-38 cells (RFU) (WI-38 cells; listed as stromal cell-derived factor 1 a): positive effects |
